Assay results reported in the supplement of paper PMC8671470.
Structures can show the parent of a compound that is named as a salt.

system: BV-173; assay: cell viability (% survival relative to DMSO control); higher = less cytotoxic; details: drug1 concentration 100 nM; drug2 concentration 100 nM; 72 h
Protocol: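 8x8 drug-combination matrices (0–5000 nM; rosiglitazone and lestaurtinib 0–1000 nM) were run in BV-173 cells for 72 h with CellTiter-Glo read-out. Survival is normalised to DMSO and 10 µM bortezomib and clipped at 100%.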

| SMILES | cell viability |
| --- | --- |
| O=C(O)CC[N+](=O)[O-] [3-nitropropionic acid] + CCn1c(=Cc2cccc[n+]2CC)sc(=C2Sc3ccccc3N2C)c1=O [MKT 077] | 94.3% |
| CCn1c(=Cc2cccc[n+]2CC)sc(=C2Sc3ccccc3N2C)c1=O [MKT 077] + CN(C)CCNC(=O)c1cccn2c(=O)c3cc4ccccc4cc3nc12 [Bmh-21] | > 100% |
| CN(CCOc1ccc(Cc2sc(O)nc2O)cc1)c1ccccn1 [Rosiglitazone] + CC(C)(Cc1ccccc1)NCC(O)c1ccc(O)c(NS(C)(=O)=O)c1 [Zinterol hydrochloride] | > 100% |
| CN(CCOc1ccc(Cc2sc(O)nc2O)cc1)c1ccccn1 [Rosiglitazone] + c1cc(-c2cnn3cc(-c4ccc(OCCN5CCCCC5)cc4)cnc23)ccn1 [Dorsomorphin] | > 100% |

same assay, conditions: drug1 concentration 100 nM; drug2 concentration 500 nM; 72 h

| SMILES | cell viability |
| --- | --- |
| O=C(O)CC[N+](=O)[O-] [3-nitropropionic acid] + CCn1c(=Cc2cccc[n+]2CC)sc(=C2Sc3ccccc3N2C)c1=O [MKT 077] | 86.4% |
| CCn1c(=Cc2cccc[n+]2CC)sc(=C2Sc3ccccc3N2C)c1=O [MKT 077] + CN(C)CCNC(=O)c1cccn2c(=O)c3cc4ccccc4cc3nc12 [Bmh-21] | 34.8% |
| CN(CCOc1ccc(Cc2sc(O)nc2O)cc1)c1ccccn1 [Rosiglitazone] + CC(C)(Cc1ccccc1)NCC(O)c1ccc(O)c(NS(C)(=O)=O)c1 [Zinterol hydrochloride] | > 100% |
| CN(CCOc1ccc(Cc2sc(O)nc2O)cc1)c1ccccn1 [Rosiglitazone] + c1cc(-c2cnn3cc(-c4ccc(OCCN5CCCCC5)cc4)cnc23)ccn1 [Dorsomorphin] | > 100% |

same assay, conditions: drug1 concentration 100 nM; drug2 concentration 1000 nM; 72 h

| SMILES | cell viability |
| --- | --- |
| O=C(O)CC[N+](=O)[O-] [3-nitropropionic acid] + CCn1c(=Cc2cccc[n+]2CC)sc(=C2Sc3ccccc3N2C)c1=O [MKT 077] | > 100% |
| CCn1c(=Cc2cccc[n+]2CC)sc(=C2Sc3ccccc3N2C)c1=O [MKT 077] + CN(C)CCNC(=O)c1cccn2c(=O)c3cc4ccccc4cc3nc12 [Bmh-21] | 66.5% |
| CN(CCOc1ccc(Cc2sc(O)nc2O)cc1)c1ccccn1 [Rosiglitazone] + CC(C)(Cc1ccccc1)NCC(O)c1ccc(O)c(NS(C)(=O)=O)c1 [Zinterol hydrochloride] | > 100% |
| CN(CCOc1ccc(Cc2sc(O)nc2O)cc1)c1ccccn1 [Rosiglitazone] + c1cc(-c2cnn3cc(-c4ccc(OCCN5CCCCC5)cc4)cnc23)ccn1 [Dorsomorphin] | > 100% |

same assay, conditions: drug1 concentration 100 nM; drug2 concentration 5000 nM; 72 h

| SMILES | cell viability |
| --- | --- |
| O=C(O)CC[N+](=O)[O-] [3-nitropropionic acid] + CCn1c(=Cc2cccc[n+]2CC)sc(=C2Sc3ccccc3N2C)c1=O [MKT 077] | > 100% |
| CCn1c(=Cc2cccc[n+]2CC)sc(=C2Sc3ccccc3N2C)c1=O [MKT 077] + CN(C)CCNC(=O)c1cccn2c(=O)c3cc4ccccc4cc3nc12 [Bmh-21] | 0.37% |
| CN(CCOc1ccc(Cc2sc(O)nc2O)cc1)c1ccccn1 [Rosiglitazone] + CC(C)(Cc1ccccc1)NCC(O)c1ccc(O)c(NS(C)(=O)=O)c1 [Zinterol hydrochloride] | > 100% |
| CN(CCOc1ccc(Cc2sc(O)nc2O)cc1)c1ccccn1 [Rosiglitazone] + c1cc(-c2cnn3cc(-c4ccc(OCCN5CCCCC5)cc4)cnc23)ccn1 [Dorsomorphin] | 97.2% |

same assay, conditions: drug1 concentration 500 nM; drug2 concentration 5 nM; 72 h

| SMILES | cell viability |
| --- | --- |
| O=C(O)CC[N+](=O)[O-] [3-nitropropionic acid] + CCn1c(=Cc2cccc[n+]2CC)sc(=C2Sc3ccccc3N2C)c1=O [MKT 077] | > 100% |
| CCn1c(=Cc2cccc[n+]2CC)sc(=C2Sc3ccccc3N2C)c1=O [MKT 077] + CN(C)CCNC(=O)c1cccn2c(=O)c3cc4ccccc4cc3nc12 [Bmh-21] | 82.7% |
| CN(CCOc1ccc(Cc2sc(O)nc2O)cc1)c1ccccn1 [Rosiglitazone] + CC(C)(Cc1ccccc1)NCC(O)c1ccc(O)c(NS(C)(=O)=O)c1 [Zinterol hydrochloride] | > 100% |
| CN(CCOc1ccc(Cc2sc(O)nc2O)cc1)c1ccccn1 [Rosiglitazone] + c1cc(-c2cnn3cc(-c4ccc(OCCN5CCCCC5)cc4)cnc23)ccn1 [Dorsomorphin] | > 100% |

same assay, conditions: drug1 concentration 500 nM; drug2 concentration 10 nM; 72 h

| SMILES | cell viability |
| --- | --- |
| O=C(O)CC[N+](=O)[O-] [3-nitropropionic acid] + CCn1c(=Cc2cccc[n+]2CC)sc(=C2Sc3ccccc3N2C)c1=O [MKT 077] | 72.9% |
| CCn1c(=Cc2cccc[n+]2CC)sc(=C2Sc3ccccc3N2C)c1=O [MKT 077] + CN(C)CCNC(=O)c1cccn2c(=O)c3cc4ccccc4cc3nc12 [Bmh-21] | > 100% |
| CN(CCOc1ccc(Cc2sc(O)nc2O)cc1)c1ccccn1 [Rosiglitazone] + CC(C)(Cc1ccccc1)NCC(O)c1ccc(O)c(NS(C)(=O)=O)c1 [Zinterol hydrochloride] | > 100% |
| CN(CCOc1ccc(Cc2sc(O)nc2O)cc1)c1ccccn1 [Rosiglitazone] + c1cc(-c2cnn3cc(-c4ccc(OCCN5CCCCC5)cc4)cnc23)ccn1 [Dorsomorphin] | > 100% |

same assay, conditions: drug1 concentration 500 nM; drug2 concentration 50 nM; 72 h

| SMILES | cell viability |
| --- | --- |
| O=C(O)CC[N+](=O)[O-] [3-nitropropionic acid] + CCn1c(=Cc2cccc[n+]2CC)sc(=C2Sc3ccccc3N2C)c1=O [MKT 077] | > 100% |
| CCn1c(=Cc2cccc[n+]2CC)sc(=C2Sc3ccccc3N2C)c1=O [MKT 077] + CN(C)CCNC(=O)c1cccn2c(=O)c3cc4ccccc4cc3nc12 [Bmh-21] | 86.5% |
| CN(CCOc1ccc(Cc2sc(O)nc2O)cc1)c1ccccn1 [Rosiglitazone] + CC(C)(Cc1ccccc1)NCC(O)c1ccc(O)c(NS(C)(=O)=O)c1 [Zinterol hydrochloride] | > 100% |
| CN(CCOc1ccc(Cc2sc(O)nc2O)cc1)c1ccccn1 [Rosiglitazone] + c1cc(-c2cnn3cc(-c4ccc(OCCN5CCCCC5)cc4)cnc23)ccn1 [Dorsomorphin] | > 100% |

same assay, conditions: drug1 concentration 500 nM; drug2 concentration 100 nM; 72 h

| SMILES | cell viability |
| --- | --- |
| O=C(O)CC[N+](=O)[O-] [3-nitropropionic acid] + CCn1c(=Cc2cccc[n+]2CC)sc(=C2Sc3ccccc3N2C)c1=O [MKT 077] | > 100% |
| CCn1c(=Cc2cccc[n+]2CC)sc(=C2Sc3ccccc3N2C)c1=O [MKT 077] + CN(C)CCNC(=O)c1cccn2c(=O)c3cc4ccccc4cc3nc12 [Bmh-21] | 90.9% |
| CN(CCOc1ccc(Cc2sc(O)nc2O)cc1)c1ccccn1 [Rosiglitazone] + CC(C)(Cc1ccccc1)NCC(O)c1ccc(O)c(NS(C)(=O)=O)c1 [Zinterol hydrochloride] | 97.1% |
| CN(CCOc1ccc(Cc2sc(O)nc2O)cc1)c1ccccn1 [Rosiglitazone] + c1cc(-c2cnn3cc(-c4ccc(OCCN5CCCCC5)cc4)cnc23)ccn1 [Dorsomorphin] | > 100% |

same assay, conditions: drug1 concentration 500 nM; drug2 concentration 500 nM; 72 h

| SMILES | cell viability |
| --- | --- |
| O=C(O)CC[N+](=O)[O-] [3-nitropropionic acid] + CCn1c(=Cc2cccc[n+]2CC)sc(=C2Sc3ccccc3N2C)c1=O [MKT 077] | > 100% |
| CCn1c(=Cc2cccc[n+]2CC)sc(=C2Sc3ccccc3N2C)c1=O [MKT 077] + CN(C)CCNC(=O)c1cccn2c(=O)c3cc4ccccc4cc3nc12 [Bmh-21] | 46.4% |
| CN(CCOc1ccc(Cc2sc(O)nc2O)cc1)c1ccccn1 [Rosiglitazone] + CC(C)(Cc1ccccc1)NCC(O)c1ccc(O)c(NS(C)(=O)=O)c1 [Zinterol hydrochloride] | > 100% |
| CN(CCOc1ccc(Cc2sc(O)nc2O)cc1)c1ccccn1 [Rosiglitazone] + c1cc(-c2cnn3cc(-c4ccc(OCCN5CCCCC5)cc4)cnc23)ccn1 [Dorsomorphin] | 98.4% |

same assay, conditions: drug1 concentration 500 nM; drug2 concentration 1000 nM; 72 h

| SMILES | cell viability |
| --- | --- |
| O=C(O)CC[N+](=O)[O-] [3-nitropropionic acid] + CCn1c(=Cc2cccc[n+]2CC)sc(=C2Sc3ccccc3N2C)c1=O [MKT 077] | 89.1% |
